# Legend:
# M. tuberculosis Erdman = conditions: eight weeks, Balb/c and C3HeB/FeJ mice; cited from earlier work
# [1] = male, Sprague-Dawley, rat, in vivo, po, 50 mg/kg
# Experimental: For plasma drug measurements, 0.5 ml blood was collected in lithium heparin tubes at 5 min, 15 min, 1 h, 3 h, 6 h, 24 h, 48 h, and 72 h. The samples were centrifuged and the resultant plasma was separated and transferred to duplicate clear polypropylene tubes, frozen immediately over dry ice, and stored at −80° C. until analysis. The plasma concentration in rats was determined by HPLC. Non-compartment PK analyses were performed using Phoenix WinNonlin (Version 7.0).
smiles,measurement,setting,value
CC(=O)NC[C@H]1CN(c2ccc(N3CCOCC3)c(F)c2)C(=O)O1 [Linezolid],"log 10 CFU counts, linezolid monotherapy (Lanoix et al.)",M. tuberculosis Erdman,4-6 log 10 CFU
same,AUC0-last/Dose,[1],5.64 [hr*μg/mL]/[mg/kg]

# — patent publication US20260083674A1, “OXAZOLIDINONE LIPOSOME COMPOSITIONS” (priority 2021, published 2026)
